Data on one compound can be found in patent US11458144B1, “Methods for using 5-HMF analogs with increased solubility to inhibit or reverse RBC sickling” (King Abdulaziz University, priority 2021, dated 2022).

Data set [1] has as its target T1, Hb (Homo sapiens, UniProt P68871+P69905, E7V).
T1 construct: Using homozygous sickle (SS) blood from patients; endogenous in cells; host or cells: red blood cells of homozygous SS patient blood (hematocrit 20%); clarified lysates measured after incubation
Briefly: Oxygen equilibrium study (P50 shift) of lysates from SS blood, Hemox Analyzer. In kind it is cell-based. The conditions noted are these: 2 mM, SS RBCs. The procedure:
(§1) The effect of the MMA compounds and positive control 5-HMF on RBC sickling, Hb modification, and Hb oxygen equilibrium was studied utilizing SS blood following previous procedure.^[27]
For the oxygen equilibrium study, about 100 μL aliquot of clarified lysate of residual samples from the above antisickling study was added to 4 mL of 0.1 M potassium phosphate buffer, pH 7.0, in cuvettes and subjected to hemoximetry analysis using Hemox™ Analyzer (TCS Scientific Corp., New Hope, Pa.) to assess P50 shift, which is the partial pressure of oxygen (PO2) at which 50% of Hb is saturated with oxygen (SO2). Degree of Hb O2 affinity shift (ΔP50) was expressed as percentage fractions of control DMSO-treated samples.
(§2) Using homozygous sickle (SS) blood from patients, the MMA compounds (MMA502, MMA503, MMA504, MMA505, and MMA509 were tested with 5-HMF as control for Hb adduct formation, effect on Hb affinity for oxygen and corresponding antisickling activities (RBC morphology study) using previously published protocols.^14,15

For data set [2], the target named is T2, CYP1A2 (Homo sapiens, UniProt P05177).
T2 construct: using pooled human liver microsomes as previously published; from tissue; host or cells: pooled human liver microsomes
T2 sequence (P05177 1-516): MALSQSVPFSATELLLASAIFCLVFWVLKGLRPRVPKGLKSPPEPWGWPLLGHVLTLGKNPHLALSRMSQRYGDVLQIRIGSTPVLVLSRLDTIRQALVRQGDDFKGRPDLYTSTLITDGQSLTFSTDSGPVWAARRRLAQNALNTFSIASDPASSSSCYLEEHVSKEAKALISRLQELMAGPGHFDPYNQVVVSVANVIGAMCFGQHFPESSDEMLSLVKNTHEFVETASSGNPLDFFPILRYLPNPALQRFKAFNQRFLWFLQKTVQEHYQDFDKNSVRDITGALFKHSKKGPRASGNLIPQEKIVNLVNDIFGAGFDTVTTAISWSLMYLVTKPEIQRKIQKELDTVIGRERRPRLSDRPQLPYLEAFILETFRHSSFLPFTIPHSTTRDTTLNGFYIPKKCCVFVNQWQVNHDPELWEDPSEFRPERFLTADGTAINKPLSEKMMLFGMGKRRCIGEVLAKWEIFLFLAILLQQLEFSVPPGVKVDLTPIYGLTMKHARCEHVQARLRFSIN
Briefly: In vitro CYP inhibition, pooled human liver microsomes. In kind it is in vitro ADME. Conditions: substrate Tacrine. The method, then:
(§3) The probe substrates include tacrine (CYP1A2), amodiaquine (CYP2C8), tolbutamide (CYP2C9), mephenytoin (CYP2C19), dextromethorphan (CYP2D6), midazolam (CYP3A4), testosterone (CYP3A4), and bupropion (CYP2B6). […] The assays were performed in duplicate in 96-well plates at 37° C. for 10-60 minutes. The reaction was terminated with addition of methanol, followed by incubation at 4° C. for 10 min and centrifuged at 4° C. for 10 min.
On the technique in general: Liver microsomes are vesicles of endoplasmic reticulum, rich in cytochrome P450 enzymes.

The target in data set [3] is T3, CYP2C8 (Homo sapiens, UniProt P10632).
T3 construct: using pooled human liver microsomes as previously published; from tissue; host or cells: pooled human liver microsomes
T3 sequence (P10632 1-490): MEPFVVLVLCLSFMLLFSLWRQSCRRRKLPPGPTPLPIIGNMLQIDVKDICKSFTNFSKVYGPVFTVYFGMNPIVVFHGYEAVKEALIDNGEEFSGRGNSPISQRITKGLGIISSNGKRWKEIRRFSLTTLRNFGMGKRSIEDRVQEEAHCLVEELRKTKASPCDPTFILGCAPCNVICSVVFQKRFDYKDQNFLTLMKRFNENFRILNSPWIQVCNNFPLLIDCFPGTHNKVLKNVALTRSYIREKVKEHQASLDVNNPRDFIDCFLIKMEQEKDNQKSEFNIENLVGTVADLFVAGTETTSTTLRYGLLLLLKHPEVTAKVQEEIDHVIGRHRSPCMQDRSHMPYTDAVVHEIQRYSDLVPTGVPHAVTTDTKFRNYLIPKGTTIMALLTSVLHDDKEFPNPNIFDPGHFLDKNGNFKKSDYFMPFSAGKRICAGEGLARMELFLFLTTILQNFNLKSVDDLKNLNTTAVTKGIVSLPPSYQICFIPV
The data set is described as above. Type of data set: in vitro ADME. Conditions: substrate Amodiaquine. The method, then:
as §3

Data set [4] addresses CYP2D6 (Homo sapiens, UniProt P10635). Described as above. The method, then: as §3
Data set [5] concerns the target CYP2C9 (Homo sapiens, UniProt P11712). The data set is described as above. The method, then: as §3
Data set [6] concerns the target CYP2C19 (Homo sapiens, UniProt P33261). The description is as above. The method, then: as §3
The target of data set [7] is CYP3A4 (Homo sapiens, UniProt P08684). The description is as above. The procedure:
as §3

Data set [8] deals with T4, CYP2B6 (Homo sapiens, UniProt P20813).
T4 sequence (P20813 1-491): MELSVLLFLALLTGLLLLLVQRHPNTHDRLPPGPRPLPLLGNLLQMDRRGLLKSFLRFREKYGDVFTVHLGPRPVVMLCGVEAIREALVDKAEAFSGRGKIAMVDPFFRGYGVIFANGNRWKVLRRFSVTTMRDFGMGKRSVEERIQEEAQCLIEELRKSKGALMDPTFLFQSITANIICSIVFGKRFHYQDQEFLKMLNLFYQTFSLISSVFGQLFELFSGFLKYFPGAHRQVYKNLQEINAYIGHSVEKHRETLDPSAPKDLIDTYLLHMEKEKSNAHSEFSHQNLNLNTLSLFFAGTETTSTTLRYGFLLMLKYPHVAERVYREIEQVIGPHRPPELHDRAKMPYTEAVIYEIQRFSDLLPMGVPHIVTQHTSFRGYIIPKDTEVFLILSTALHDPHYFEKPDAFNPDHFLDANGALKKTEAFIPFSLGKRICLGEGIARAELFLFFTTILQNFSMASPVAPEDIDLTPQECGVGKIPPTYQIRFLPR
The data set is described as above. The method, then: as §3

The test system of data set [9] is SS RBCs. As to the kind of experiment: Antisickling study (RBC morphology) in SS blood under hypoxia. Type of data set: cell-based, human. Conditions: 2 mM, SS blood hematocrit 20%, 2.5% O2, 37° C. The method, then:
as §1
For the antisickling study, SS blood (hematocrit 20%) were incubated under air in the absence or presence of all the MMA compounds (0.5 mM, 1 mM and 2 mM) at 37° C. for 1 h, followed by incubating the mixture under hypoxic conditions (2.5% O2) at 37° C. for 2 h. Aliquots with fixed 2% glutaraldehyde solution and under anaerobic condition were subjected to microscopic morphological analysis.^[11]
as §2

Data set [10] concerns human cytochrome P450 (CYP) enzymes. As to the kind of experiment: In vitro CYP inhibition, panel of seven enzymes (overall statement). Type of data set: in vitro ADME. Conditions: 0.1 to 100 μM; pooled human liver microsomes. The method, then:
as §3

SMILES strings stand for the structures. Read-outs that look alike come from different tables or passages of the source.

As to `O=Cc1ccc(CO)o1` [Compound 5-HMF, 5-hydroxymethylfurfural, reference compound], the “% Hb-O2 affinity (P50 shift vs DMSO control)” value in data set [1] came out at 27%; in [1] (listed as 5HMF), 27.2 ± 4.9%. The IC50 in data set [2], in data set [3], in data set [4], in data set [5], in [6] and in data set [7] was above 100 µM in each case. Further, the IC50 is above 100 µM in data set [7] (human, microsomes, pH 7.4) and above 100 µM in [8]. In data set [9], the “% Sickling inhibition” value came to 21.4 ± 0.0%. In addition, the inhibition at 2000 µM in data set [9] (Homo sapiens, read-out: % Sickling inhibition) is 21%. For the same compound, the “inhibition of liver CYP isozymes” value in [10] is recorded as “no inhibition”.

For orientation: IC50 means the concentration that gives 50% inhibition. Read a high IC50 as weaker potency. The inhibition is the relative decrease from the control value, in per cent.
